Source: patent US11001613B2, “TFPI inhibitors and methods of use” (priority 2008, dated 2021)
Residues, ends and D or L forms follow the SMILES beside them.

Experiments:
[1] = test system: TFPI-dependent thrombin generation in FVIII deficient plasma; assay: thrombin generation (calibrated automated thrombography) in FVIII deficient plasma; settings: plasma-based assay, FIGS. 11A and 11B
[2] = biological target: T1, TFPI-1 (Homo sapiens, UniProt P10646); assay: FXa inhibition assay; format: biochemical; settings: OD readings after 115 minutes
T1 sequence (P10646 29-304): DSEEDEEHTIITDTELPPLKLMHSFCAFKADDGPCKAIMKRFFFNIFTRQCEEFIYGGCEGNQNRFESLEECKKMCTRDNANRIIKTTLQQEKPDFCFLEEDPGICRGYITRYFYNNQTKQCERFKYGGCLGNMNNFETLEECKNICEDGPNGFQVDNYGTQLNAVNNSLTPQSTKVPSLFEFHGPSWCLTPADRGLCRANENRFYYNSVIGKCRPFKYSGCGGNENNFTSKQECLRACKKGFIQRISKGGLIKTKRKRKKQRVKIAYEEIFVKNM

[3] = in vivo, iv, 10 mg/kg

CSCC[C@@H]1NC(=O)CNC(=O)[C@@H](NC(=O)[C@H](Cc2ccccc2)NC(=O)[C@H](Cc2c[nH]c3ccccc23)NC(=O)[C@H](CCCCN)NC(=O)[C@H](Cc2ccc(O)cc2)NC(=O)[C@H](CCCNC(=N)N)NC(=O)[C@H](CO)NC(=O)[C@H](C)NC(=O)CNC(=O)[C@H](CO)NC(C)=O)CSSC[C@@H](C(=O)N[C@H](C(=O)N[C@@H](Cc2c[nH]c3ccccc23)C(=O)N[C@H](C(=O)N[C@@H](CCCCN)C(=O)N[C@@H](Cc2ccccc2)C(=O)N[C@@H](CCCNC(=N)N)C(=O)N[C@@H](Cc2ccc(O)cc2)C(=O)N[C@@H](CC(=O)O)C(=O)N[C@H](C(=O)N[C@@H](CO)C(N)=O)[C@@H](C)O)C(C)C)C(C)C)NC(=O)[C@H](CO)NC(=O)[C@H](CCSC)NC(=O)[C@H]([C@@H](C)O)NC(=O)CNC(=O)[C@H](CCCCN)NC(=O)[C@H](CCSC)NC(=O)[C@H](CC(=O)O)NC(=O)[C@H](CCCNC(=N)N)NC1=O [JBT0120]
peak thrombin and peak time [1]: improved peak thrombin and peak time, dose dependently

CC(=O)N[C@@H](Cc1ccccc1)C(=O)N[C@@H](CCC(N)=O)C(=O)N[C@@H](CO)C(=O)N[C@@H](CCCCN)C(=O)N[C@@H](CC(N)=O)C(=O)N[C@@H](CC(N)=O)C(=O)N[C@H](C(=O)N[C@@H](Cc1ccccc1)C(=O)N[C@H](C(=O)N[C@@H](Cc1ccccc1)C(=O)NCC(=O)N[C@@H](Cc1ccc(O)cc1)C(=O)N[C@@H](Cc1ccccc1)C(=O)N[C@@H](CCC(=O)O)C(=O)N[C@@H](CCCNC(=N)N)C(=O)N[C@@H](CC(C)C)C(=O)N[C@@H](CCCNC(=N)N)C(=O)N[C@@H](C)C(=O)N[C@@H](CCCCN)C(=O)N[C@@H](CC(C)C)C(N)=O)C(C)C)C(C)C [JBT0297] (Ac-FQSKNNVFVFGYFERLRAKL-NH2)
EC50 [2]: 600 nM

CC(=O)N[C@@H](Cc1ccccc1)C(=O)N[C@@H](CCC(N)=O)C(=O)N[C@@H](CO)C(=O)N[C@@H](CCCCN)C(=O)NCC(=O)N[C@@H](CC(N)=O)C(=O)N[C@H](C(=O)N[C@@H](Cc1ccccc1)C(=O)N[C@H](C(=O)N[C@@H](CC(=O)O)C(=O)NCC(=O)N[C@@H](Cc1ccc(O)cc1)C(=O)N[C@@H](Cc1ccccc1)C(=O)N[C@@H](CCC(=O)O)C(=O)N[C@@H](CCCNC(=N)N)C(=O)N[C@@H](CC(C)C)C(=O)NC(C)(C)C(=O)N[C@@H](C)C(=O)N[C@@H](CCCCN)C(=O)N[C@@H](CC(C)C)C(N)=O)C(C)C)C(C)C [JBT0740]
concentration of peptide in mouse plasma over time [3]: rapidly cleared from the plasma
